Converted amounts (≈) assume the structure as drawn.

From ChEMBL document CHEMBL4425178, “A convenient synthesis and screening of benzosuberone bearing 1,2,3-triazoles against Mycobacterium tuberculosis” (2016) come the findings set out here.

The experiment has as its system Mycobacterium tuberculosis. In words: Antimycobacterial activity against Mycobacterium tuberculosis H37Rv ATCC 27294 after 28 days by agar dilution assay. It is filed as functional. To be noted: H37Rv ATCC 27294, 672 h. Background: In agar dilution, organisms are placed on agar that contains the substance at set levels.
In general, MIC refers to the lowest concentration that inhibits growth of the organism. High values mean weaker potency, low ones greater potency. For the compound `CCCCCCc1cn(C2CCCCc3ccccc32)nn1` (stereo not drawn), the MIC came to 6.25 µg/mL (≈ 21 µM).
The value for `c1ccc2c(c1)CCCCC2n1cc(-c2cc3ccccc3c3ccccc23)nn1` (stereo not drawn) was over 25 µg/mL; that for `c1cc(-c2cn(C3CCCCc4ccccc43)nn2)cc(-c2cn(C3CCCCc4ccccc43)nn2)c1` (stereo not drawn) was 6.25 µg/mL (≈ 12.5 µM).
Under `CC(C)(C)c1ccc(-c2cn(C3CCCCc4ccccc43)nn2)cc1` (stereo not drawn) stands 6.25 µg/mL (≈ 18.1 µM).
On to `c1ccc(-c2cn(C3CCCCc4ccccc43)nn2)nc1` (stereo not drawn), for which 12.5 µg/mL (≈ 43 µM) was the least that counted as inhibitory (MIC).
For `c1ccc2c(c1)CCCCC2n1cc(-c2ccsc2)nn1` (stereo not drawn), the MIC is over 25 µg/mL.
In the case of `Cc1ccc(-c2cn(C3CCCCc4ccccc43)nn2)cc1` (stereo not drawn), the minimum inhibitory concentration (MIC) was over 25 µg/mL.
`NNC(=O)c1ccncc1` [ISONIAZID] showed an MIC of 0.1 µg/mL (≈ 0.729 µM).
Compound `CCc1ccc(-c2cn(C3CCCCc4ccccc43)nn2)cc1` (stereo not drawn) came in with an MIC of over 25 µg/mL.
Under `COc1cccc(-c2cn(C3CCCCc4ccccc43)nn2)c1` (stereo not drawn) stands 3.12 µg/mL (≈ 9.78 µM); under `FC(F)(F)Oc1ccc(-c2cn(C3CCCCc4ccccc43)nn2)cc1` (stereo not drawn), over 25 µg/mL.
Turning to `c1ccc(-c2cn(C3CCCCc4ccccc43)nn2)cc1` (stereo not drawn), the MIC is over 25 µg/mL.
Compound `CCCCCc1ccc(-c2cn(C3CCCCc4ccccc43)nn2)cc1` (stereo not drawn) yielded an MIC of over 25 µg/mL.
The value for `CCCc1ccc(-c2cn(C3CCCCc4ccccc43)nn2)cc1` (stereo not drawn) was over 25 µg/mL.
`COc1ccc2cc(-c3cn(C4CCCCc5ccccc54)nn3)ccc2c1` (stereo not drawn) came in with an MIC of over 25 µg/mL.
The compound `CC[C@@H](CO)NCCN[C@@H](CC)CO` [ETHAMBUTOL] returned an MIC of 3.13 µg/mL (≈ 15.3 µM).
Consider `c1cncc(-c2cn(C3CCCCc4ccccc43)nn2)c1` (stereo not drawn), for which 12.5 µg/mL (≈ 43 µM) was the least that counted as inhibitory (MIC).
On to `CO[C@H]1/C=C/O[C@@]2(C)Oc3c(C)c(O)c4c(O)c(c(/C=N/N5CCN(C)CC5)c(O)c4c3C2=O)NC(=O)/C(C)=C\C=C\[C@H](C)[C@H](O)[C@@H](C)[C@@H](O)[C@@H](C)[C@H](OC(C)=O)[C@@H]1C` [RIFAMPIN], for which the MIC was 0.2 µg/mL (≈ 0.243 µM).
